Data on 15 molecules can be found in patent publication US20080221161A1, “HETEROCYCLIC MODULATORS OF TGR5 FOR TREATMENT OF DISEASE” (KALYPSYS, INC., priority 2007, published 2008).

In the assay the target is T1, human TGR5 (Homo sapiens, UniProt Q8TDU6).
T1 construct: expressed in transfected cells; host or cells: HEK-293 cells, stably transfected (pcDNA 3.1, Fugene6, geneticin selection)
T1 sequence (Q8TDU6 1-330): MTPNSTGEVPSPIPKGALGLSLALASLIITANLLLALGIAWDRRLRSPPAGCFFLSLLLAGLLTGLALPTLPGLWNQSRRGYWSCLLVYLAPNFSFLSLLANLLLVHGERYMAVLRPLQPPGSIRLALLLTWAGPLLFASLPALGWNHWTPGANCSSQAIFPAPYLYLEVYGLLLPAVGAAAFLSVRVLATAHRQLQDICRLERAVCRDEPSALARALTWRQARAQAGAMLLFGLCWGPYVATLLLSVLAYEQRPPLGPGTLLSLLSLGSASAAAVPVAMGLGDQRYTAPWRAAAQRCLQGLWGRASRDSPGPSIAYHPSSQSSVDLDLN
The assay can be described thus: cAMP production assay in HEK293-TGR5 cells. The format is cell-based. The following applies: HEK293 cells stably expressing human TGR5; 30 minutes stimulation; LANCE cAMP TR-FRET; read-out: cAMP Production in 293-TGR5 Cells EC50. On the procedure:
HEK293 cells stably expressing TGR5 (HEK293-TGR5) were established by stably transfecting HEK-293 cells with an expression vector (pcDNA 3.1, Invetrogen) inserted with human TGR5 cDNA using Fugene6 (Roche, Indianapolis, Ind.) according to conventional methods. Cells were grown in DMEM (invitrogen, Carlsbad, Calif.) supplemented with 10% FBS, 1% penicillin/streptomycin under geneticin selection. The presence of TGR5 transcripts in these cells was confirmed using branched DNA (bDNA, Genospectra, Inc., Fremont Calif.) following the manufacturer's protocol and using specific probes for human TGR5. cAMP production assay was performed in high throughput 1536 well format using LANCE cAMP detection kit (Perkin Elmer Inc., Boston, Mass.) according to the manufacturer's protocol. Briefly, HEK293-TGR5 cells were harvested using non-enzymatic cell dissociation buffer (Invitrogen, Carlsbad, Calif.) and suspended in DMEM supplemented with 0.1% FBS at a density of 800,000 cells/ml. Alexa antibody was added to the cell suspension, and 4 ul of the mixture was dispensed in white opaque tissue culture treated Greiner 1536 well plates (USA Scientific, Inc., Ocala, Fla.). After an overnight incubation at 37C in an atmosphere of 10% CO2 and 95% humidity, 1 ul of 5 mM IBMX (Sigma, St. Louis, Mo.) solution in DMEM was dispensed for a final concentration of 1 mM. Cells were then stimulated with test compounds for 30 minutes, after which time 5 ul of detection reagent was added and incubated for 1-7 hrs at room temperature. TR-FRET signal was detected using the Viewlux (Perkin Elmer Inc., Boston Mass.). EC50 values were determined using Graph Pad Prizm analysis (GraphPad Software, Inc).
As to `COc1ccc2cc(CN(CCc3ccc(Cl)cc3)C(C)=O)c(-c3ccsc3)nc2c1` [Example 32, N-(4-Chlorophenethyl)-N-((7-methoxy-2-(thiophen-3-yl)quinolin-3-yl)methyl)acetamide], the EC50 was above 10 µM. As for `COc1ccc2cc(CN(CCc3ccc(Cl)cc3)S(C)(=O)=O)c(-c3ccsc3)nc2c1` [Example 33, N-(4-Chlorophenethyl)-N-((7-methoxy-2-(thiophen-3-yl)quinolin-3-yl)methyl)methanesulfonamide], the figure is above 10 µM. `COc1ccc2cc(CN(C)CCc3ccc(Cl)cc3)c(-c3ccsc3)nc2c1` [Example 35, 2-(4-Chlorophenyl)-N-((7-methoxy-2-(thiophen-3-yl)quinolin-3-yl)methyl)-N-methylethanamine]: the EC50 is above 10 µM. Then `COc1ccc2cc(CNCc3ccc(C(F)(F)F)cc3)c(-c3ncco3)nc2c1` [Example 37, 1-(7-Methoxy-2-(oxazol-2-yl)quinolin-3-yl)-N-(4-(trifluoromethyl)benzyl)methanamine], with above 10 µM; and `COc1ccc2cc(CNCCc3ccc(Cl)cc3)c(-c3ncco3)nc2c1` [Example 38, 2-(4-Chlorophenyl)-N-((7-methoxy-2-(oxazol-2-yl)quinolin-3-yl)methyl)ethanamine], with below 10 µM; and `CSc1ccc2cc(CNCCc3ccc(Br)cc3)c(-c3ccsc3)nc2c1` [Example 39, 2-(4-Bromophenyl)-N-((7-(methylthio)-2-(thiophen-3-yl)quinolin-3-yl)methyl)ethanamine], with below 10 µM. As for `CSc1ccc2cc(CNCc3ccc(C(F)(F)F)cc3)c(-c3ccsc3)nc2c1` [Example 40, 1-(7-(Methylthio)-2-(thiophen-3-yl)quinolin-3-yl)-N-(4-(trifluoromethyl)benzyl)methanamine], the EC50 is above 10 µM. As for `FC(F)(F)c1ccc(CNCc2cc3ccc(Cl)cc3nc2-c2ccsc2)cc1` [Example 41, 1-(7-Chloro-2-(thiophen-3-yl)quinolin-3-yl)-N-(4-(trifluoromethyl)benzyl)methanamine], the figure is above 10 µM. Consider `Cc1ccc2cc(CNCc3ccc(C(F)(F)F)cc3)c(-c3ccsc3)nc2c1` [Example 44, 1-(7-Methyl-2-(thiophen-3-yl)quinolin-3-yl)-N-(4-(trifluoromethyl)benzyl)methanamine], for which the EC50 was below 10 µM. As for `CCOc1ccc2cc(CNCCc3ccc(Br)cc3)c(-c3cccnc3)nc2c1` [Example 45, 2-(4-Bromophenyl)-N-((7-ethoxy-2-(pyridin-3-yl)quinolin-3-yl)methyl)ethanamine], the figure is above 10 µM. Then `CCOc1ccc2cc(CNCc3ccc(C(F)(F)F)cc3)c(-c3cccnc3)nc2c1` [Example 46, 1-(7-Ethoxy-2-(pyridin-3-yl)quinolin-3-yl)-N-(4-(trifluoromethyl)benzyl)methanamine], with above 10 µM. `COc1ccc2cc(CNCc3ccc(C(F)(F)F)cc3)c(-c3ccccc3)nc2c1` [Example 48, 1-(7-Methoxy-2-phenylquinolin-3-yl)-N-(4-(trifluoromethyl)benzyl)methanamine]: the EC50 was below 10 µM. For `CCOc1ccc2cc(CNCCc3ccc(Cl)cc3)c(-c3ccsc3)nc2c1` [Example 50, 2-(4-Chlorophenyl)-N-((7-ethoxy-2-(thiophen-3-yl)quinolin-3-yl)methyl)ethanamine], the EC50 is below 10 µM. As for `CCOc1ccc2cc(CNCc3ccc(C(F)(F)F)cc3)c(-c3ccsc3)nc2c1` [Example 51, 1-(7-Ethoxy-2-(thiophen-3-yl)quinolin-3-yl)-N-(4-(trifluoromethyl)benzyl)methanamine], the figure is below 10 µM; as for `COc1ccc2cc(CNCc3ccc(Br)cc3)c(-c3ccncc3)nc2c1` [Example 52, N-(4-Bromobenzyl)-1-(7-methoxy-2-(pyridin-4-yl)quinolin-3-yl)methanamine], below 10 µM.
